Experimental data taken from patent US9206245B2, “Immunogenic peptides and methods of use for treating and preventing cancer” (The United States of America, as represented by the …, priority 2005, dated 2015).
Where no end group is shown, it is not given here.

Legend:
HLA-B7 = biological target: T1, HLA-B7 (Homo sapiens, UniProt P01889); experiment: T2-B7 binding assay: stabilization of HLA-B7 molecules on the surface of T2-B7 cells, flow cytometry; details: for binding affinity for HLA-B7 compared with natural RS10 peptide: FIGS. 4 and 6; for EC50: FIGS. 4 and 6, read-out: concentration required for a 50% increase in HLA-B7 expression
T1 construct: transfected with the HLA-B7 gene; expressed in transfected cells; host or cells: T2 (TAP1/TAP2-deficient hybrid B and T lymphoblastoid cell line) transfected with the HLA-B7 gene (T2.B7, gift of Peter Cresswell)
Method: A chromosomal translocation-generated fusion protein breakpoint peptide, RS10 (SPQNSIRHNL), is selected on the basis of predicted potential binding to HLA-B7 (Rammensee et al., Immunogenetics 41: 178-228 (1995)). Peptide binding to HLA-B7 is assessed by using stabilization of HLA-B7 molecules on the surface of T2-B7 cells that lack the TAP transporter and therefore express only short-lived empty HLA-B7 molecules unless a peptide is present that can bind and stabilize them. These assays are described in (Stuber et al., Eur. J. Immunol., 22, 2697-2703 (1992), Nijman et al., Eur. J. Immunol., 23, 1215-1219 (1993), Zeh et al., Hum. Immunol., 39, 79-86 (1994), and Smith et al., Internat. Immunol., 9, 1085-1093 (1997)). Cells of the TAP1/TAP2-deficient T2 cell line (Salter et al., Immunogenetics, 21, 235-246 (1985), and Spies et al., Nature, 351, 323-324 (1991)) transfected with the HLA-B7 gene are suspended in culture medium containing heat inactivated FCS (2.5% v/v) and added to 96-well round-bottomed plates at 2×10^5 cells/well. Human β2-microglobulin (Sigma Chemical Co.) is also added at 20 μg/well. Where appropriate, peptide is added to the desired concentration. The cells are then incubated overnight at 37° C. in 5% CO2, followed by washing with PBS containing NaN3 (0.5% w/v and FCS 2% v/v). Next, cells are incubated on ice for 30 min in the presence of primary anti-HLA-B7 specific antibody (BB7.1 hybridoma culture supernatant; ATCC), followed by washing and incubation for 30 min in goat anti-mouse immunoglobulin FITC (Becton Dickinson). Analysis is performed by flow cytometry.
Conventional mAb staining is conducted in PBS containing 0.01% sodium azide on ice. Cells are labeled with FITC- or PE-conjugated mAbs obtained from BD PharMingen (San Diego, Calif.). For each staining of interest, the appropriate isotype-matched control is included. All reagents are used at optimal concentration as determined experimentally. Flow cytometric analysis is performed with a FACScan (BD Biosciences, Mountain View, Calif.). Data are collected on 5000-10,000 viable cell events and analyzed with CellQuest software.

C1R-B7 target cells = experiment: 4 h 51Cr release assay, RS10-specific human CTL line against peptide pulsed C1R-B7 target cells; format: cell-based; details: peptide pulsed at 10 μM, various E:T ratios, versus control peptide
Method: In particular, specific cytotoxic activities are determined in a standard 4 h ^51Cr release assay at various effector:target (E:T) ratios. Briefly, graded doses of viable effector cells are plated in triplicate in 96-well U-bottom culture plates (Corning Glass, Corning, N.Y.) and co-cultured for 4 h with sodium chromate-labeled (100 μCi; NEN, Boston, Mass.) peptide pulsed (10 μM) C1R-B7 target cells. In some experiments, the Rh5, RD and CTR tumor cell lines are used as a target. Supernatants are collected, radioactivity measured, and specific lysis is calculated according to the equation: percentage of specific cytotoxicity=(experimental cpm−spontaneous cpm)/(maximum cpm−spontaneous cpm)×100. Maximum ^51Cr release is determined from supernatants of lysed target cells incubated with Triton X-100 (5% v/v). Spontaneous release is determined from target cells incubated without added effector cells.

T1 sequence (P01889 25-362): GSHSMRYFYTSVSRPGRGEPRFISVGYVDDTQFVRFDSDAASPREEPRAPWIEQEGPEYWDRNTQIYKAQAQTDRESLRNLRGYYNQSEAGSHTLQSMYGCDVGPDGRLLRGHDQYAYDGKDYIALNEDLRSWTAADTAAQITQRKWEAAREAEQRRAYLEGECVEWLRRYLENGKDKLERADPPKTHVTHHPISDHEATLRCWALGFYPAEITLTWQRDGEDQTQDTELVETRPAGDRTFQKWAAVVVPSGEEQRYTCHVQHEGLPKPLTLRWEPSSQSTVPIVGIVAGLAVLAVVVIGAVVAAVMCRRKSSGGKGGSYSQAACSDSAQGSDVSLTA
T1 sequence (P61769 21-119 partner): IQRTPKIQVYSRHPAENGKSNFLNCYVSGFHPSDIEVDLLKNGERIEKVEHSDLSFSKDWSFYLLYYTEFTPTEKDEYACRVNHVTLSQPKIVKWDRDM

Sequence | binding affinity for HLA-B7 compared with natural RS10 peptide (HLA-B7) | CTL lysis of peptide pulsed C1R-B7 target cells (C1R-B7 target cells) | EC50 (HLA-B7) [nM]
SPQNAIRHNL [RS10-5A] | higher binding affinity for HLA-B7 than the natural RS10 peptide |  | 
SPQNSARHNL [RS10-6A] | higher binding affinity for HLA-B7 than the natural RS10 peptide |  | 
SPANSIRHNL [RS10-3A, SPANSIRHNL] | higher binding affinity for HLA-B7 than the natural RS10 peptide | specific killing observed | ~50
SPQNSIRHNL [RS10, SPQNSIRHNL] |  |  | ~300
